In ChEMBL document CHEMBL1201862, “PubChem BioAssay data set” (2004):
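Growth conditions: 96-well plates. Treatment: test compound, 48 hours, 5 concentrations. Analysis: linear interpolation between bracketing concentrations; unreached endpoints set to highest concentration. At the GI50, growth is halved.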 Calls of active or inactive are those of the source. Rule as the data show it: active = GI50 up to about 1.1 µM and inactive = higher.

Columns and labels:
Experiment in all cases: NCI tumour cell line growth inhibition, 48 h
A549 = system: A549
RPMI-8226 = system: RPMI-8226
KM-20L2 = system: KM-20L2
SNB-19 = system: SNB-19
DMS-114 = system: DMS-114
OVCAR-4 = system: OVCAR-4
OVCAR-3 = system: OVCAR-3
OVCAR-8 = system: OVCAR-8
OVCAR-5 = system: OVCAR-5
HOP-62 = system: HOP-62
U-251 = system: U-251
COLO 205 = system: COLO 205
SK-OV-3 = system: SK-OV-3
HCC 2998 = system: HCC 2998
HCT-116 = system: HCT-116
ACHN = system: ACHN
786-0 = system: 786-0
MCF7 = system: MCF7
SK-MEL-2 = system: SK-MEL-2
Hs-578T = system: Hs-578T
M14 = system: M14
NCI/ADR-RES = system: NCI/ADR-RES
SK-MEL-5 = system: SK-MEL-5
SN12C = system: SN12C
HOP-92 = system: HOP-92
MDA-MB-435 = system: MDA-MB-435
Malme-3M = system: Malme-3M
UO-31 = system: UO-31
NCI-H522 = system: NCI-H522
DU-145 = system: DU-145
SF-268 = system: SF-268
SF-539 = system: SF-539
IGROV-1 = system: IGROV-1
UACC-257 = system: UACC-257
NCI-H23 = system: NCI-H23
CCRF-CEM = system: CCRF-CEM
UACC-62 = system: UACC-62
K562 = system: K562
HT-29 = system: HT-29
SR = system: SR
SK-MEL-28 = system: SK-MEL-28
SW-620 = system: SW-620
TK-10 = system: TK-10
PC-3 = system: PC-3
A498 = system: A498
MDA-N = system: MDA-N
T47D = system: T47D
NCI-H226 = system: NCI-H226
MOLT-4 = system: MOLT-4
SF-295 = system: SF-295
HL-60 = system: HL-60
EKVX = system: EKVX
BT-549 = system: BT-549
HCT-15 = system: HCT-15
CAKI-1 = system: CAKI-1
KM12 = system: KM12
SNB-75 = system: SNB-75
RXF 393 = system: RXF 393
NCI-H460 = system: NCI-H460
LOX IMVI = system: LOX IMVI
MDA-MB-231 = system: MDA-MB-231
LXFL 529 = system: LXFL 529
M19-MEL = system: M19-MEL
DMS-273 = system: DMS-273
DLD-1 = system: DLD-1
SNB-78 = system: SNB-78

CC1=CC(=O)c2[nH]c3ccccc3c2C1=O [MURRAYAQUINONE A]
GI50 (A549): > 25 µM (inactive) | GI50 (RPMI-8226): 5.96 µM (inactive) | GI50 (KM-20L2): > 25 µM (inactive) | GI50 (SNB-19): > 25 µM (inactive) | GI50 (DMS-114): 4.26 µM (inactive) | GI50 (OVCAR-4): 4.16 µM (inactive) | GI50 (OVCAR-3): 4.53 µM (inactive) | GI50 (OVCAR-8): 4.02 µM (inactive) | GI50 (OVCAR-5): 5.4 µM (inactive) | GI50 (HOP-62): > 25 µM (inactive)

Fc1cc(C2=C[C@H](c3ccc4c(c3)OCO4)NC(=S)N2)c(Cl)cc1Cl
GI50 (U-251): 22.9 µM (inactive) | GI50 (COLO 205): 20.9 µM (inactive) | GI50 (SK-OV-3): 57 µM (inactive) | GI50 (HCC 2998): 23.2 µM (inactive) | GI50 (HCT-116): 27.5 µM (inactive) | GI50 (ACHN): 28.8 µM (inactive) | GI50 (786-0): 39.9 µM (inactive) | GI50 (MCF7): 32.2 µM (inactive) | GI50 (SK-MEL-2): 20.9 µM (inactive) | GI50 (Hs-578T): 70 µM (inactive) | GI50 (M14): 40.4 µM (inactive) | GI50 (NCI/ADR-RES): 51.6 µM (inactive) | GI50 (SK-MEL-5): 10.3 µM (inactive) | GI50 (SN12C): 27.4 µM (inactive) | GI50 (HOP-92): 25.9 µM (inactive) | GI50 (MDA-MB-435): 34.6 µM (inactive) | GI50 (Malme-3M): 30.7 µM (inactive) | GI50 (UO-31): 39.2 µM (inactive) | GI50 (A549): 35.6 µM (inactive) | GI50 (NCI-H522): 31.6 µM (inactive) | GI50 (RPMI-8226): 22.9 µM (inactive) | GI50 (DU-145): 49 µM (inactive) | GI50 (SF-268): 45.7 µM (inactive) | GI50 (SF-539): 46.7 µM (inactive) | GI50 (IGROV-1): 27.4 µM (inactive) | GI50 (UACC-257): 26.3 µM (inactive) | GI50 (NCI-H23): 60.8 µM (inactive) | GI50 (CCRF-CEM): 21.8 µM (inactive) | GI50 (UACC-62): 35.9 µM (inactive) | GI50 (K562): 32.1 µM (inactive) | GI50 (SNB-19): 57.4 µM (inactive) | GI50 (HT-29): 27.9 µM (inactive) | GI50 (SR): 31.9 µM (inactive) | GI50 (SK-MEL-28): 40.3 µM (inactive) | GI50 (SW-620): 36 µM (inactive) | GI50 (TK-10): 28.8 µM (inactive) | GI50 (OVCAR-4): 38.1 µM (inactive) | GI50 (PC-3): 21.4 µM (inactive) | GI50 (A498): 20.8 µM (inactive) | GI50 (MDA-N): 35.6 µM (inactive) | GI50 (T47D): 20.2 µM (inactive) | GI50 (NCI-H226): 59.2 µM (inactive) | GI50 (MOLT-4): 23.4 µM (inactive) | GI50 (SF-295): 31.9 µM (inactive) | GI50 (HL-60): 0.0303 µM (active) | GI50 (OVCAR-3): 30.2 µM (inactive) | GI50 (OVCAR-8): 41.2 µM (inactive) | GI50 (EKVX): 22.2 µM (inactive) | GI50 (BT-549): 57 µM (inactive) | GI50 (OVCAR-5): 44.1 µM (inactive) | GI50 (HCT-15): 37.4 µM | GI50 (CAKI-1): 34.8 µM (inactive) | GI50 (KM12): 38 µM (inactive) | GI50 (SNB-75): 20.8 µM (inactive) | GI50 (HOP-62): 39.5 µM (inactive) | GI50 (RXF 393): 23 µM (inactive) | GI50 (NCI-H460): 25.5 µM (inactive) | GI50 (LOX IMVI): 37.2 µM (inactive) | GI50 (MDA-MB-231): 23.8 µM (inactive)

O=c1ccc2nc3cc(Br)ccc3sc-2c1
GI50 (U-251): > 100 µM (inactive) | GI50 (COLO 205): > 100 µM (inactive) | GI50 (SK-OV-3): > 100 µM (inactive) | GI50 (LXFL 529): 89.7 µM (inactive) | GI50 (M19-MEL): 55.1 µM (inactive) | GI50 (HCC 2998): > 100 µM (inactive) | GI50 (HCT-116): > 100 µM (inactive) | GI50 (ACHN): 57 µM (inactive) | GI50 (SK-MEL-2): > 100 µM (inactive) | GI50 (M14): > 100 µM (inactive) | GI50 (DMS-273): > 100 µM (inactive) | GI50 (SK-MEL-5): 62.8 µM (inactive) | GI50 (SN12C): > 100 µM (inactive) | GI50 (HOP-92): > 100 µM (inactive) | GI50 (Malme-3M): > 100 µM (inactive) | GI50 (UO-31): > 100 µM (inactive) | GI50 (A549): > 100 µM (inactive) | GI50 (NCI-H522): 56.8 µM (inactive) | GI50 (KM-20L2): > 100 µM (inactive) | GI50 (SF-268): > 100 µM (inactive) | GI50 (SF-539): > 100 µM (inactive) | GI50 (IGROV-1): > 100 µM (inactive) | GI50 (UACC-257): > 100 µM (inactive) | GI50 (NCI-H23): > 100 µM (inactive) | GI50 (CCRF-CEM): 12.9 µM (inactive) | GI50 (UACC-62): 30.9 µM (inactive) | GI50 (K562): 22.4 µM (inactive) | GI50 (SNB-19): > 100 µM (inactive) | GI50 (DLD-1): 82.8 µM (inactive) | GI50 (HT-29): > 100 µM (inactive) | GI50 (SR): 33 µM (inactive) | GI50 (SK-MEL-28): > 100 µM (inactive) | GI50 (SW-620): > 100 µM (inactive) | GI50 (TK-10): > 100 µM (inactive) | GI50 (DMS-114): > 100 µM (inactive) | GI50 (OVCAR-4): 29.4 µM (inactive) | GI50 (NCI-H226): > 100 µM (inactive) | GI50 (MOLT-4): 21.7 µM (inactive) | GI50 (SF-295): > 100 µM (inactive) | GI50 (HL-60): 13.5 µM (inactive) | GI50 (OVCAR-3): > 100 µM (inactive) | GI50 (EKVX): > 100 µM (inactive) | GI50 (OVCAR-5): > 100 µM (inactive) | GI50 (HCT-15): 74.1 µM | GI50 (CAKI-1): 32.3 µM (inactive) | GI50 (KM12): > 100 µM (inactive) | GI50 (SNB-75): > 100 µM (inactive) | GI50 (HOP-62): > 100 µM (inactive) | GI50 (NCI-H460): > 100 µM (inactive) | GI50 (SNB-78): > 100 µM (inactive)
